From patent US20050130252A1, “Stabilized susceptibility tests of aerobic pathogens” (Wyeth Holdings Corporation, priority 2003, published 2005)
≈ marks a conversion by molar mass, not a printed value. Like-named read-outs stand apart in the source and are kept apart here.

Assays:
[1] = system: E. faecalis ATCC 29212; test: Broth microdilution MIC; type: cell-based, Enterococcus faecalis; conditions: for MIC: Enterococcus faecalis
Method: The process for preparing susceptibility test medium are the following steps: • a. Preparing Mueller Hinton Broth II medium by adding 22 grams powdered media to 1.0 liter distilled water; • b. Autoclaving (121° C., 15 psi, 15 minutes) and cooling the medium; • c. Adding Oxyrase® up to about 10% final volume and keeping at 35-37° C. in an incubator for 30 minutes; • d. Adding about 50 μL to each well of a 96 well microtiter plate; • e. Weighing drug and adding broth to drug to bring up to about (standard 128 μg/ml); • f. Adding 50 μL of the drug to the first column of the titer plate; • g. Diluting by two-fold serial diluting across or down the plate. • h. Preparing a Prompt™ inoculum at 10^8 CFU/ml; • i. Diluting inoculum 1:100 in the broth at […] in 9.9 ml (1:100) is 10^6 colony forming units (CFU) forming the adjusted inoculum; • j. Adding 50 μL of the adjusted inoculum to the wells of the microtiter plate; • k. Incubating the plates at 35-37° C. for 18-22 hours; and • l. Reading, with the unaided eye, the MIC.
(§1) The in vitro activities of tigecycline and control antibiotics were determined by the broth microdilution method as recommended by the NCCLS. (National Committee for Clinical Laboratory Standards, 2003. Methods for Dilution Antimicrobial Susceptibility Tests for Bacteria That Grow Aerobically; Approved Standards: M7-A6, Sixth ed, vol. 23., National Committee for Clinical Laboratory Standards Wayne, Pa.) was used for the standard procedures. MBH with 5% lysed horse blood was used for testing S. pneumoniae and Haemophilus Test Medium was used for testing H. influenzae. Oxyrase® (Oxyrase Inc, Mansfield, Ohio) was used according to the manufacturer's instructions by adding 1 ml of Oxyrase® to 50 ml of media. Media age studies were performed by preparing MHB in multiple flasks, then storing the media under various conditions. MICs were usually performed in duplicate on each day of testing. Storage under anaerobic conditions was conducted in an anaerobic chamber (MACS MG 1000, Don Whitley Scientific LTD). The pH of the media was determined by pH meter (Corning 430). A comparison of the in vitro activity of tigecycline by agar and broth dilution methodolgies with and without Oxyrase® against clinical isolates is shown in Table 1.

[2] = system: ATCC reference strains; test: Broth microdilution MIC, reference strains taken together; type: cell-based
Method: The MICs for TGC were determined under various conditions by broth microdilution using NCCLS procedures. The MHB was stored at 2° C., room temperature, anaerobically and with the addition of Oxyrase® to determine the effect of various conditions. Time Kill kinetics was used to confirm MIC differences observed with the broth microdilution for aged and fresh media results.
as §1
To determine the effect of media age on the in vitro activity of tigecycline, MHB was prepared and stored at room temperature or 2° C. for 28 days. […] The aging of the media was slowed somewhat in the media stored at […] compared to the media stored at room temperature.

[3] = system: clinical isolates and strains expressing various tetracycline resistance determinants; test: Broth microdilution MIC, panel of clinical isolates and tetracycline-resistant strains taken together; type: cell-based; conditions: Table 5 panel
Method: as §1, with “1. […]” for “1.”

[4] = Table 8, E. faecalis ATCC 29212, Mueller Hinton Broth + Oxyrase, n = 240
[5] = Table 8, E. faecalis ATCC 29212, Mueller Hinton Broth, n = 320
[6] = Table 9, E. faecalis ATCC 29212, Mueller Hinton Broth + Oxyrase, n = 31
[7] = Table 9, E. faecalis ATCC 29212, Mueller Hinton Broth, n = 96

CN(C)c1cc(NC(=O)CNC(C)(C)C)c(O)c2c1C[C@H]1C[C@H]3[C@H](N(C)C)C(O)=C(C(N)=O)C(=O)[C@@]3(O)C(O)=C1C2=O [Tigecycline, tigecycline]
MIC ([1]; ATCC29212, 0 h, E. faecalis ATCC 29212, Day 0, Pre-prepared media, room temperature, N = 6): 0.25 µg/mL (≈ 0.427 µM)
MIC ([1]; ATCC29212, 0 h, E. faecalis ATCC 29212, Day 0, media Fresh from Powder 2° C., N = 6): 0.03 µg/mL (≈ 0.0512 µM)
MIC ([1]; ATCC29212, 0 h, E. faecalis ATCC 29212, Day 0, media Fresh from Powder, room temperature, N = 6): 0.03 µg/mL (≈ 0.0512 µM)
MIC ([1]; ATCC29212, 24 h, E. faecalis ATCC 29212, Day 1, Pre-prepared media, room temperature, N = 6): 0.25 µg/mL (≈ 0.427 µM)
MIC ([1]; ATCC29212, 24 h, E. faecalis ATCC 29212, Day 1, media Fresh from Powder 2° C., N = 6): 0.03 µg/mL (≈ 0.0512 µM)
MIC ([1]; ATCC29212, 24 h, E. faecalis ATCC 29212, Day 1, media Fresh from Powder, room temperature, N = 6): 0.03 to 0.06 µg/mL (≈ 0.0512 to 0.102 µM)
MIC ([1]; ATCC29212, 168 h, E. faecalis ATCC 29212, Day 7, Pre-prepared media, room temperature, N = 6): 0.25 µg/mL (≈ 0.427 µM)
MIC ([1]; ATCC29212, 168 h, E. faecalis ATCC 29212, Day 7, media Fresh from Powder 2° C., N = 6): 0.06 µg/mL (≈ 0.102 µM)
MIC ([1]; ATCC29212, 168 h, E. faecalis ATCC 29212, Day 7, media Fresh from Powder, room temperature, N = 6): 0.12 to 0.25 µg/mL (≈ 0.205 to 0.427 µM)
MIC ([1]; ATCC29212, 336 h, E. faecalis ATCC 29212, Day 14, Pre-prepared media, room temperature, N = 6): 0.25 to 0.5 µg/mL (≈ 0.427 to 0.854 µM)
MIC ([1]; ATCC29212, 336 h, E. faecalis ATCC 29212, Day 14, media Fresh from Powder 2° C., N = 6): 0.25 µg/mL (≈ 0.427 µM)
MIC ([1]; ATCC29212, 336 h, E. faecalis ATCC 29212, Day 14, media Fresh from Powder, room temperature, N = 6): 0.25 µg/mL (≈ 0.427 µM)
MIC ([1]; ATCC29212, 336 h, read-out: Minimal Inhibitory Concentration, E. faecalis ATCC29212, media Aged Aerobic (2 weeks at RT under room air), N = 4): 0.25 µg/mL (≈ 0.427 µM)
MIC ([1]; ATCC29212, 504 h, E. faecalis ATCC 29212, Day 21, Pre-prepared media, room temperature, N = 6): 0.25 to 0.5 µg/mL (≈ 0.427 to 0.854 µM)
MIC ([1]; ATCC29212, 504 h, E. faecalis ATCC 29212, Day 21, media Fresh from Powder 2° C., N = 6): 0.25 µg/mL (≈ 0.427 µM)
MIC ([1]; ATCC29212, 504 h, E. faecalis ATCC 29212, Day 21, media Fresh from Powder, room temperature, N = 6): 0.25 µg/mL (≈ 0.427 µM)
MIC ([1]; ATCC29212, 672 h, E. faecalis ATCC 29212, Day 28, Pre-prepared media, room temperature, N = 6): 0.25 to 0.5 µg/mL (≈ 0.427 to 0.854 µM)
MIC ([1]; ATCC29212, 672 h, E. faecalis ATCC 29212, Day 28, media Fresh from Powder 2° C., N = 6): 0.12 to 0.25 µg/mL (≈ 0.205 to 0.427 µM)
MIC ([1]; ATCC29212, 672 h, E. faecalis ATCC 29212, Day 28, media Fresh from Powder, room temperature, N = 6): 0.12 to 0.25 µg/mL (≈ 0.205 to 0.427 µM)
MIC ([1]; ATCC29212, read-out: Minimal Inhibitory Concentration (modal value), E. faecalis ATCC29212, Aged Media + Oxyrase, N = 8): 0.12 µg/mL
MIC ([1]; ATCC29212, read-out: Minimal Inhibitory Concentration (modal value), E. faecalis ATCC29212, Aged media, N = 8): 0.5 µg/mL (≈ 0.854 µM)
MIC ([1]; ATCC29212, read-out: Minimal Inhibitory Concentration (modal value), E. faecalis ATCC29212, Fresh Media + Oxyrase, N = 8): 0.06 µg/mL
MIC ([1]; ATCC29212, read-out: Minimal Inhibitory Concentration (modal value), E. faecalis ATCC29212, Freshly Prepared Media, N = 8): 0.06 to 0.12 µg/mL (≈ 0.102 to 0.205 µM)
MIC ([1]; ATCC29212, read-out: Minimal Inhibitory Concentration, E. faecalis ATCC 29212, 2% Oxyrase): 0.03 µg/mL (≈ 0.0512 µM)
MIC ([1]; ATCC29212, read-out: Minimal Inhibitory Concentration, E. faecalis ATCC29212, Aged Media + Oxyrase, N = 8): 0.12 µg/mL
MIC ([1]; ATCC29212, read-out: Minimal Inhibitory Concentration, E. faecalis ATCC29212, Aged media, N = 8): 0.25 to 0.5 µg/mL (≈ 0.427 to 0.854 µM)
MIC ([1]; ATCC29212, read-out: Minimal Inhibitory Concentration, E. faecalis ATCC29212, Commercially Prepared media, N = 4): 0.12 to 0.25 µg/mL (≈ 0.205 to 0.427 µM)
MIC ([1]; ATCC29212, read-out: Minimal Inhibitory Concentration, E. faecalis ATCC29212, Fresh Media + Oxyrase, N = 8): 0.06 µg/mL
MIC ([1]; ATCC29212, read-out: Minimal Inhibitory Concentration, E. faecalis ATCC29212, Freshly Prepared Media, N = 8): 0.06 to 0.12 µg/mL (≈ 0.102 to 0.205 µM)
MIC ([1]; ATCC29212, read-out: Minimal Inhibitory Concentration, E. faecalis ATCC29212, Freshly Prepared media, N = 4): 0.03 µg/mL (≈ 0.0512 µM)
MIC ([1]; ATCC29212, read-out: Minimal Inhibitory Concentration, E. faecalis ATCC 29212, MHB II + 0.05% Catalase): 0.5 µg/mL
MIC ([1]; ATCC29212, read-out: Minimal Inhibitory Concentration, E. faecalis ATCC 29212, MHB II + 0.05% L-ascorbic Acid): 1 µg/mL
MIC ([1]; ATCC29212, read-out: Minimal Inhibitory Concentration, E. faecalis ATCC 29212, MHB II + 0.05% L-cysteine): 0.12 µg/mL
MIC ([1]; ATCC29212, read-out: Minimal Inhibitory Concentration, E. faecalis ATCC 29212, MHB II + 0.05% Sodium Pyruvate): 0.25 µg/mL
MIC ([1]; ATCC29212, read-out: Minimal Inhibitory Concentration, E. faecalis ATCC 29212, MHB II + 0.05% Thioglycolate): 0.12 µg/mL
MIC ([1]; ATCC29212, read-out: Minimal Inhibitory Concentration, E. faecalis ATCC 29212, MHB II + 2% Oxyrase): 0.03 to 0.06 µg/mL
MIC ([1]; ATCC29212, read-out: Minimal Inhibitory Concentration, E. faecalis ATCC 29212, Mueller Hinton Broth II (Fresh)): 0.06 to 0.12 µg/mL (≈ 0.102 to 0.205 µM)
MIC ([1]; ATCC29212, read-out: Minimal Inhibitory Concentration, E. faecalis ATCC 29212, No Oxyrase): 0.25 µg/mL (≈ 0.427 µM)
MIC ([1]; ATCC29212, read-out: Minimal Inhibitory Concentration, E. faecalis ATCC29212, media Aged Anaerobic, N = 4): 0.03 µg/mL (≈ 0.0512 µM)
Number of Occurrences of MIC 0.03 ug/ml [1, 4]: 5
Number of Occurrences of MIC 0.06 ug/ml [1, 4]: 203
Number of Occurrences of MIC 0.12 ug/ml [1, 4]: 28
Number of Occurrences of MIC 0.25 ug/ml [1, 4]: 2
Number of Occurrences of MIC 0.5 ug/ml [1, 4]: 1
Number of Occurrences of MIC 1 ug/ml [1, 4]: 1
Number of Occurrences of MIC 0.06 ug/ml [1, 5]: 1
Number of Occurrences of MIC 0.12 ug/ml [1, 5]: 96
Number of Occurrences of MIC 0.25 ug/ml [1, 5]: 140
Number of Occurrences of MIC 0.5 ug/ml [1, 5]: 16
Number of Occurrences of MIC 1 ug/ml [1, 5]: 64
Number of Occurrences of MIC 2 ug/ml [1, 5]: 3
Number of Occurrences of MIC 0.03 ug/ml [1, 6]: 6
Number of Occurrences of MIC 0.06 ug/ml [1, 6]: 14
Number of Occurrences of MIC 0.12 ug/ml [1, 6]: 11
Number of Occurrences of MIC 0.12 ug/ml [1, 7]: 25
Number of Occurrences of MIC 0.25 ug/ml [1, 7]: 52
Number of Occurrences of MIC 0.5 ug/ml [1, 7]: 19
Increase in the MICs over the four week period of media storage ([2]; ATCC reference organisms, MHB stored 28 days, Table 4): 3 to 4 dilution
MICs in aged media supplemented with Oxyrase compared with fresh media ([2]; Table 3): nearly identical to those determined in fresh media
MICs in fresh media supplemented with Oxyrase compared with unsupplemented fresh media ([2]; Table 3): not significantly different
MICs in commercially prepared media and media aged 2 weeks at RT under room air higher than in freshly prepared media ([2]; Table 6): 1-4 dilutions
MICs in media stored under anaerobic conditions compared with fresh media ([2]; Table 6): nearly identical to the results obtained in fresh media
More active in freshly prepared media than in commercially prepared and aged media ([2]; reference strains): 2 to 3 dilution
MIC ([2]; reference strains, addition of Oxyrase): 0.06 to 0.25 µg/mL (≈ 0.102 to 0.427 µM)
MIC ([2]; reference strains, aged medium stored under anaerobic conditions prior to testing): 0.03 to 0.12 µg/mL (≈ 0.0512 to 0.205 µM)
MIC ([2]; reference strains, commercially prepared and aged (7 day old) media from powder): 0.12 to 0.25 µg/mL (≈ 0.205 to 0.427 µM)
MIC ([2]; reference strains, freshly prepared media): 0.03 to 0.12 µg/mL (≈ 0.0512 to 0.205 µM)
MICs in fresh media lower than in aged media [3]: 1 to 3 dilutions
